Data on five compounds can be found in US10138280B2, “Polypeptides targeting glycosylated MUC2 proteins, methods of synthesis, their nucleic acids and uses thereof” (INSTITUT PASTEUR, priority 2011, dated 2018).

No end group written: not given here.

In assay [1] the test system is human neutrophil (PMN) granules. Put plainly: Human neutrophil (PMN) granule staining. To be noted: for PMN granule staining: PMN purified from human blood, fixed in 4% PFA, 1 μg/mL; for signal brightness of PMN granule staining: fixed PMN, compared among Cy5-MUB40 probes. Format: cell-based. The procedure: FIG. 14. Staining of individual neutrophiles (white blood cells) in human blood sample. Cy5-MUB70 was incubated on ethanol 100% fixed blood sample. […] (Details are provided on the Figure). […] In particular, granules staining is achieved.
FIG. 15. Staining of individual neutrophiles (white blood cells) purified from fresh human blood sample. Cy5-MUB70 was incubated on PFA 4% fixed neutrophiles (PFA treatment for 15 min, wash 3 times in PBS). Signal was detected as dots distributed in neutrophile cytoplasms. (Staining with Dapi 1:1000 and EB1C5 1:1000 in PBS+10% FCS+0.1% Saponin). […] In particular, granules staining is achieved.
FIG. 29. Identification of Muc2 in neutrophile granules using MUB70-Cy5. Human neutrophil (PMN) granule staining using Cy5-MUB70. PMN were purified from healthy donor blood samples and fixed in the presence of 4% PFA. Fluorescent staining of human colonic mucus was performed by the addition of 1 μg/mL of Cy5-MUB70 (Red) with Dapi (1:100) (Blue) and 1:200 anti-Muc2 antibody (Green). Image acquisition was performed using a fluorescent confocal microscope (see Methods).
FIG. 31. Identification of Muc2 in neutrophile granules. Human neutrophil (PMN) granule staining using Cy5-MUB40-1, Cy5-MUB40-2, Cy5-MUB40-3, Cy5-MUB40-4 peptides. Schematic description of the Cy5-conjugated peptides. PMN were purified from healthy donor blood samples and fixed in the presence of 4% PFA. Fluorescent staining of human colonic mucus was performed by the addition of 1 μg/mL of the Cy5-conjugated peptides (Green) with Dapi (1:100) (Blue) and Phalloidin-RRX (1:1000) (Red). Image acquisition was performed using a fluorescent confocal microscope (see Methods).
The invention has also proven to be useful for the monitoring of neutrophile degranulation events, in particular by using MUB70 and/or MUB40 polypeptides or polypeptides sharing identity with MUB70 and/or MUB40 polypeptides, or fragments thereof, for labelling neutrophile granule(s).

Assay [2] addresses T1, human colonic mucus and goblet cells (Homo sapiens, UniProt Q02817).
T1 construct: Segments of human colon (ascending, descending and sigmoid colon) were obtained from fully informed patients undergoing surgery; from tissue; host or cells: healthy human colon segments (live explants, mucus collected from them, Carnoy- or formol-fixed sections)
In words: Fluorescent staining of healthy human colon, formol fixed, paraffin embedded samples. To be noted: fixed samples, 1 μg/mL. The method, then: FIG. 22. Schematic description of the Cy5-MUB40-1, Cy5-MUB40-2, Cy5-MUB40-3, Cy5-MUB40-4 peptides (SEQ ID NOS 62 to 65). Fluorescent staining of human colonic mucus was performed by the addition of 1 μg/mL of the corresponding Cy5-conjugated peptides with Phalloidin-RRX (1:100) on formol fixed, paraffin embedded samples. Image acquisition was performed using a fluorescent confocal microscope (see Methods).
FIG. 23 Comparative staining analysis of human colonic goblet cells using Cy5-MUB70 and Cy5-MUB40-1. Fluorescent staining of human colonic mucus was performed by the addition of 1 μg/mL of the corresponding Cy5-conjugated peptides with Phalloidin-RRX (1:100) on formol fixed, paraffin embedded samples. Image acquisition was performed using a fluorescent confocal microscope (see Methods).
FIGS. 24A-24B. Comparative human colonic mucus staining using MUB70-Cy5 on healthy tissues and mucinous carcinomas (Coic et al, JBC, 2012 (41)). Fluorescent staining of human colonic mucus was performed by the addition of 1 μg/mL of the corresponding Cy5-conjugated peptides with Phalloidin-RRX (1:100) on formol fixed, paraffin embedded samples. Image acquisition was performed using a fluorescent confocal microscope (see Methods).
As colonic mucinous carcinomas are characterized by abnormal overproduction of Muc2 in the colon mucosa (40), the inventors have hypothesized that Cy5-MUB70 could be used as a novel fluorescent marker for the diagnosis of this pathology. […] As shown previously on a healthy colon (FIG. 3B), the luminal mucus secreted fraction is detected by Cy5-MUB70 (FIG. 24A, top panel). […] This observation might be the consequence of a higher level of mucus compaction, resulting in a lower accessibility for MUB70 to bind Muc2. […] Cy5-MUB70 has been validated as a potent innovative diagnostic tool for colonic mucinous carcinoma detection and might be optimized with alternative markers (e.g. biotin) for practical clinical applications.

The target of assay [3] is T2, human colonic mucus (Muc2) (Homo sapiens, UniProt Q02817).
T2 construct: Segments of human colon (ascending, descending and sigmoid colon) were obtained from fully informed patients undergoing surgery; from tissue; host or cells: healthy human colon segments (live explants, mucus collected from them, Carnoy- or formol-fixed sections)
Put plainly: Immunofluorescent staining of human mucus and fixed human colon samples. Conditions: human mucus extract collected on ex vivo tissues. An excerpt:
FIGS. 4A-4B. Cy5-MUB70 is specifically binding to the glycosylated moiety of Muc2 secreted in the colon mucus layer. (FIG. 4A) Immunodetection of Muc2, Muc5ac, Muc5b and Muc6 (dotblot analysis) on human mucus extracts eluted after a pulldown assay performed with biot-MUB70 on avidin conjugated beads (see Methods). Biotin is used as a negative control. Immunodetection of Muc2 (dotblot analysis) on deglycosylated mucus extracts eluted after a pulldown assay performed with biot-MUB70 on avidin conjugated beads. Non-deglycosylated mucus extract is used as a positive control. (FIG. 4B) Co-localization of Muc2 (green) and Cy5-MUB (blue) observed on fixed (Carnoy) human colon samples. Actin is stained in red (Phall.RRX). Observations are performed using a confocal microscope. Bars is 20 μm.
FIGS. 9A-9B. (FIG. 9A) Co-localization of Muc2 (green) and Cy5-MUB (blue) performed by immunofluorescent detection on human mucus extract collected on ex vivo tissues using an epifluorescent microscope. Bar is 50 μm. […]
For immunofluorescence assay mouse α-MUC2 pAbs (Santa Cruz sc-15334) was diluted 1:1000 and FITC-conjugated rabbit anti-mouse was diluted 1:2000. Host cells were detected with DAPI (nuclei, […]) or using Phalloidin-Rhodamine red X (RRX)-conjugated donkey anti-mouse antibodies (Jackson Immunoresearch Antibodies) as an actin marker (stained red); both were used at a final dilution of 1:1000. […]

Regarding “Cy5-MUB40-3: Cy5-conjugated MUB40-3 peptide with N-terminal cysteine (SEQ ID NO: 64) (C(Cy5)DQMLRQDDLDGYTDETIPYSTAEGIKKFEGDGYELFKDNF; not fully specified)”, the PMN granule staining result in assay [1] is recorded as “efficiently stained”. On to “Cy5-MUB40-1: Cy5-conjugated MUB40-1 peptide with N-terminal cysteine (SEQ ID NO: 62) (C(Cy5)TAEGIKKFEGDGYELFKDNFPAGEKFDNDDTNDQFYTVIF; not fully specified)”, for which the goblet cells binding entry in assay [2] (human colonic goblet cells) is “possessing globlet-cells binding properties”. The human mucus binding result in assay [2] (human colonic mucus) is “functional human mucus-binding peptide”. Moreover, in assay [1], the PMN granule staining entry was “efficiently stained” and the “signal brightness of PMN granule staining” value is given as “brighter signal”.

Consider `CCN1/C(=C/C=C/C=C/C2=[N+](CCCCCC(=O)O)c3ccc(S(=O)(=O)O)cc3C2(C)C)C(C)(C)c2cc(S(=O)(=O)[O-])ccc21` [Cy5, reference compound], for which, in assay [3], the human mucus binding entry is on record as “does not have the property to bind human mucus”. Turning to “Cy5-MUB40-4: Cy5-conjugated MUB40-4 peptide with N-terminal cysteine (SEQ ID NO: 65) (C(Cy5)VHVQYIDGETDQMLRQDDLDGYTDETIPYSTAEGIKKFEG; not fully specified)”, in assay [1], the PMN granule staining entry is listed as “efficiently stained” and the “signal brightness of PMN granule staining” value was “brighter signal”. In the case of “Cy5-MUB40-2: Cy5-conjugated MUB40-2 peptide with N-terminal cysteine (SEQ ID NO: 63) (C(Cy5)GYTDETIPYSTAEGIKKFEGDGYELFKDNFPAGEKFDNDD; not fully specified)”, the PMN granule staining entry in assay [1] is on record as “efficiently stained”.
